In patent US11504339B2, “Compositions comprising urolithin a and uses thereof in treating kidney injury” (priority 2020, dated 2022):

Legend:
[1] = test system: miRs and stress responsive genes; test: Real-time PCR of renal cortex (miRs and stress responsive genes); assay type: in vivo, mouse
Protocol: Approximately 5 mg of kidney cortex was homogenized in Trizol solution. Micro RNA and large RNA were sequentially extracted and purified with E.Z.N.A. Micro RNA Kit (Omega Bio-tek, Norcross, Ga.) following manufacturer instructions. RNA concentrations were determined using the NanoQuant plate reader (Tecan Infinite M200). Reverse transcription for large RNA and miRNA were separately carried out using iScript gDNA Clear cDNA Synthesis Kit (Bio-Rad) and the miScript II RT Kit (Qiagen, Hilden, Germany), respectively. HiSpec Buffer was used in the latter RT reaction to target mature miRNA, and 1 μg of template RNA was used for all RT reactions. The CFX96 Touch Real-Time PCR Detection System (Bio-Rad) was used for qPCR. For gene expression, cDNA was amplified using appropriate primers (see Table 1), along with the iTaq Universal SYBR Green Supermix (Bio-Rad). Primers were pre-designed and validated by Harvard PGA Primerbank.
For miRNA expression, cDNA was amplified using miScript Primer Assays for miR-192-5p and miR-140-5p (Qiagen), along with the miScript SYBR Green PCR Kit (Qiagen). ΔCt values were calculated with β-actin (gene expression) or RNU6 (miRNA) normalization, and fold change of the gene of interest between groups was expressed as 2^−ΔΔCt.

[2] = test system: renal apoptosis; test: TUNEL immunofluorescence of kidney sections; assay type: in vivo, mouse
Text: Kidney sections were deparaffinized in xylene, rehydrated, and washed. After antigen retrieval, tissue sections were stained with fluorescein-labeled terminal deoxynucleotidyl transferase dUTP nick end labeling (TUNEL) kit (Roche, Mannheim, Germany). Slides were mounted using Vectashield Mounting Media containing DAPI (Vector Laboratories, Burlingame, Calif.). Tissue sections were imaged using the EVOS FL fluorescence microscope at 20× original magnification. TUNEL-positive cells from ten fields per kidney section and five sections per group of at least four animals were quantified using the ImageJ software's particle counter by thresholding for green fluorescence.

[3] = test system: CIS-resistant A2780 ovarian cancer cells; test: Cell viability of cisplatin-resistant A2780 cells, UA plus CIS; assay type: cell-based; settings: alone vs combination at the same concentrations
[4] = test system: intracellular NAD; test: Intracellular NAD+ measurement in kidney cortex; assay type: in vivo, mouse; settings: normalized to total protein
Protocol: Approximately 5 mg of kidney cortex from each mouse was homogenized in cold RIPA buffer. After centrifugation, approximately 50 μL of supernatant was processed in triplicate using Amplite Fluorimetric NAD Assay Kit (AAT Bioquest, Sunnyvale, Calif.) while following manufacturer instructions. Fluorescence at 420/480 nm was measured using the plate reader (Tecan Infinite M200) and NAD concentration determined using a standard curve constructed on the same day of the experiment. Protein concentration of the lysate was determined by the Bradford Assay (Bio-Rad) and served as normalization.

[5] = test system: NRF2, P53, mitochondrial OXPHOS complexes; test: Western blot of kidney cortex; assay type: in vivo, mouse
Protocol: Approximately 5 mg of kidney cortex from each mouse was homogenized in cold RIPA buffer. After centrifugation, the supernatant was collected and protein concentration was determined using the Bradford assay (Thermo Scientific, Waltham, Mass.). Approximately 30 μg of protein was subjected to denaturing SDS-PAGE. The gel-separated proteins were transferred to a 0.45 μm nitrocellulose membrane, followed by standard Western blot protocol.
Primary antibodies Nrf2 (CAT #MBS2538072, MyBiosource, San Diego, Calif.), P53 (CAT #928, Cell Signaling Technology, Danvers, Mass.), and GAPDH (CAT #2118, Cell Signaling Technology) were diluted at 1:1000, while Total OXPHOS Cocktail (CAT #ab110413, Abcam, Los Angeles, Calif.) was diluted at 1:250. HRP-conjugated secondary antibodies (Thermo Scientific): goat anti-mouse IgG and anti-rabbit igG were diluted at 1:5000. The ECL reagent was used to develop protein signals, and images were captured by the ChemiDoc imaging system (Bio-Rad, Hercules, Calif.).

[6] = CIS control compared to the P2Ns-GA UA and negative control groups
[7] = CIS control compared with the P2Ns-GA UA and negative control groups
[8] = at sacrifice, normalized to U6 snRNA

Structure (SMILES)	renal expression of Mt1 (NRF2-inducible gene) [1, 6]	renal expression of Srxn1 (NRF2-inducible gene) [1, 6]	renal expression of Txnrd1 (NRF2-inducible gene) [1, 6]	renal expression of Atf3 (P53-inducible gene) [1, 7]	renal expression of Cdkn1a (P21) (P53-inducible gene) [1, 7]	renal expression of Trp53inp1 (SIP) (P53-inducible gene) [1, 7]	renal miR-140-5p expression [1, 8]	renal miR-192-5p expression [1, 8]	PARP1 expression ([1]; normalized to β-actin)	expression of genes associated with hypoxia (HIF1α, Pgk1) ([1]; normalized to β-actin)	renal apoptosis (TUNEL positive cells) [2]	cell death / cell viability [3]	intracellular NAD [4]	mitochondrial complexes I, II, III, and IV / deficiencies in oxidative phosphorylation ([5]; Western blot, kidney cortex)	renal expression of the NRF2 protein ([5]; compared to the P2Ns-GA UA and negative control groups)
N.N.[Cl][Pt][Cl] [CIS, Cis-diamminedichloridoplatinum]	8-12 fold	4-5 fold	7-14 fold	3-4 fold	7-49 fold	9-12 fold	reductions	reductions	elevated	decreased expression	increased incidences	failed to cause cell death	reductions	marked decreases	significantly higher
O=c1oc2cc(O)ccc2c2ccc(O)cc12 [UA, 3,8-Dihydroxybenzo[c]chromen-6-one]												failed to cause cell death			
